Assay type in all cases: cell-based
One data set has as its system Pfa1 cells. Kind of data set: Inhibition of non-apoptotic cell death after tamoxifen-induced GPx4 knockout in a recombinant cell line (Example B.4). The following applies: Mus musculus, read-out: Pfa1/TAM IC50. The method in brief: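 Immortalised murine fibroblasts with tamoxifen-inducible CreERT2 for ablation of both GPx4 copies (Pfa1 cells) received tamoxifen on day 0 together with test compound. Cell survival was measured by AlamarBlue after 72 hours.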

In data set [1] the test system is mouse hippocampal cell line (Ht22). The experiment in a line: Inhibition of glutamate-induced non-apoptotic cell death (Example B.2). The settings on record: HT-22, Ht22 cells. The essentials:
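Protection from lethal glutamate (5 mM final) measured in mouse hippocampal Ht22 cells co-treated at seeding with compound from 0.5 pM to 100 μM, in triplicate. Survival read after 72 h at 37 °C/5% CO2, against glutamate-only and alpha-tocopherol controls.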

The subject of data set [2] is human neuroblastoma cell line SH-SY5Y. The experiment in a line: Inhibition of BSO-induced non-apoptotic cell death (Example B.1). The following applies: SH-SY5Y cells, 72 hours. An excerpt:
Inhibition of BSO-Induced Non-Apoptotic Cell Death by Compounds Disclosed Herein
L-Buthionine sulfoximine (BSO) is a well-known glutathione (GSH) depletory, which inhibits gamma-glutamyl-cysteine-synthetase, the enzyme catalyzing the rate-limiting step in GSH biosynthesis. The human neuroblastoma cell line SH-SY5Y is sensitive to BSO-induced intracellular glutathione depletion, which causes high levels of reactive oxygen species (ROS) and cellular stress mimicking cellular conditions following ischemia (cf., e.g., Yamada et al., Neurochem. Int. 59:1003-9 (2011)).
Compounds disclosed herein were evaluated for their ability to promote cell survival upon administration of a lethal dose of BSO to cell-culture medium. Briefly, SH-SY5Y cells (ATCC® CRL-2266™) were propagated in DMEM supplemented with 10% FBS/1% Penicillin-Streptomycin, and then seeded onto 96-well plates at a concentration of 750 cells/well in 100 μL of media, to which BSO (Sigma Aldrich) was added (to a final concentration of 50 μM) together with increasing concentrations of the compound to be tested, and the plates incubated at 37° C./5% CO2 for 72 hours. Compound dilutions (0.5 pM to 100 μM) were prepared from 10 mM stocks dissolved in DMSO and diluted in media. Cells treated with BSO alone were used as negative control and alpha-Tocopherol (Sigma Aldrich) was used as positive control. Compound concentrations were tested in triplicate. After incubation, cell survival was detected using the live/dead cell assay AquaBluer™ (MultiTarget Pharmaceuticals) and quantified using a fluorescence plate reader (excitation filter: 530-560 nm/emission filter: 590 nm) (SpectraMax M4; Molecular Devices). Fluorescence data so obtained was normalised to the percentage of surviving cells and IC50 values calculated using the GraphPad Prism (GraphPad Software, Inc) software package.

A short description of data set [3]: Cellular toxicity, same assay as Example B.4 without TAM (Example B.5). The settings on record: mouse; Pfa1 cells without TAM; read-out: TC50 (the source's name). An excerpt:
Cellular Toxicity of Compounds of the Invention
An estimate of the toxicity for compounds of the invention was obtained by using the same assay as described in Example B.4, but without the addition of TAM. […] Such TC50 values obtained for certain compounds disclosed herein, together with an approximate therapeutic window (estimated by dividing each TC50 by the corresponding IC50 determined from example B.4) are shown in Table 3.

Where [4] appears, read: glutamate-induced cell death, read-out: Ht22/GLU.
[5] abbreviates: 50 μM BSO, read-out: SH-SY5Y/BSO IC50.
Where [6] appears, read: glutamate 5 mM, 72 hours, cell survival, read-out: Ht22/GLU (Example B.2) IC50.
Setting [7] is: BSO 50 μM, cell survival (AquaBluer), read-out: SH-SY5Y/BSO (Example B.1) IC50.

Read-outs that look alike come from different tables or passages of the source. Where only a bound is given, the exact number is not on record here.

As for `Fc1cccc(F)c1CNC1=Nc2ccccc2NC12CCNCC2` [N-231], the IC50 with Pfa1 cells was below 0.05 µM; in data set [1] (setting [4]), below 0.05 µM; in data set [2] (setting [5]) it was below 0.1 µM. Further, the CC50 in data set [3] lay within 10 to 20 µM.
As for `Cc1cc2c(cc1C)NC1(CCNCC1)C(NCc1cccc(F)c1)=N2` [N-257], the IC50 was below 0.1 µM with Pfa1 cells, below 0.1 µM in data set [1] (setting [4]) and below 0.02 µM in data set [2] (setting [5]). Further, the CC50 in data set [3] lay within 1 to 2 µM.
For the molecule `Cc1cc2c(cc1C)NC1(CCNCC1)C(NCc1ccccc1)=N2` [N-210], the IC50 in the data set on Pfa1 cells is below 0.01 µM; in data set [1] (setting [4]), below 0.05 µM; in data set [2] (setting [5]), below 0.05 µM. Besides, the CC50 in data set [3] lay in the range of 2 to 5 µM.
Regarding `Cc1cc(C)cc(CNC2=Nc3cc(C)c(C)cc3NC23CCNCC3)c1` [N-262], the IC50 with Pfa1 cells is below 0.05 µM; in data set [1] (setting [4]), below 0.05 µM; in data set [2] (setting [5]), below 0.02 µM. Further, in data set [3], the CC50 lay within 0.5 to 1 µM.
Regarding `Cc1cc2c(cc1C)NC1(CCCCCC1)C(NCc1cccc(Cl)c1)=N2` [C-255], the IC50 in the data set with Pfa1 cells was below 0.2 µM; in data set [1] (setting [4]), below 0.2 µM; in data set [2] (setting [5]) it was below 0.05 µM. Moreover, the CC50 in data set [3] fell in the range of 5 to 10 µM.
As for `c1ccc(C(CNC2=Nc3ccccc3NC23CCNCC3)c2ccccc2)cc1` [N-220], the results for the IC50 (with Pfa1 cells; in data set [1] (setting [4]); in data set [2] (setting [5])) were below 0.05 µM, below 0.02 µM and below 0.05 µM, respectively. The CC50 in data set [3] was 2 to 5 µM.
As for `Cc1cccc(CNC2=Nc3cc(Cl)c(Cl)cc3NC23CCCCCC3)c1` [C-267], the IC50 is below 0.2 µM in the data set on Pfa1 cells, below 0.5 µM in data set [1] (setting [4]) and below 0.1 µM in data set [2] (setting [5]). The CC50 in data set [3] lay within 10 to 20 µM.
The corresponding values for `Cc1cc2c(cc1C)NC1(CCNCC1)C(NCc1cccc(C(F)(F)F)c1)=N2` [N-251] are below 0.1 µM, below 0.05 µM, below 0.01 µM and 0.5 to 1 µM.
Take `c1ccc(CNC2=Nc3ccccc3NC23CCCCC3)cc1` [C-215]: the IC50 with Pfa1 cells is below 1 µM; in data set [1] (setting [4]), below 1 µM; in data set [2] (setting [5]), below 0.2 µM. The CC50 in data set [3] fell in the range of 20 to 50 µM.
Turning to `Clc1cc2c(cc1Cl)NC1(CCNCC1)C(NCc1ccccc1)=N2` [N-205], the IC50 with Pfa1 cells was below 0.01 µM; in data set [1] (setting [4]) it was below 0.05 µM; in data set [2] (setting [5]), below 0.02 µM. The CC50 in data set [3] was in the range of 1 to 2 µM.
The corresponding values for `Cc1cccc2c1NC1(CCCCC1)C(NCc1ccccc1)=N2` [C-263] are below 0.5 µM, below 0.5 µM, below 0.05 µM and 10 to 20 µM.
For `Clc1ccc(CNC2=Nc3ccccc3NC23CCOCC3)cc1Cl` [O/S-345] the same measures were below 0.1 µM, below 0.5 µM, below 0.1 µM and 20 to 50 µM.
Turning to `c1ccc(CNC2=Nc3ccccc3NC23CCSCC3)cc1` [O/S-338], the IC50 in the data set on Pfa1 cells is below 1 µM; in data set [1] (setting [4]), below 5 µM; in data set [2] (setting [5]), below 0.5 µM. In addition, in data set [3], the CC50 lay in the range of 50 to 100 µM.
As for `CC(=O)NC1CCC2(CC1)Nc1ccccc1N=C2NCc1cccc(Cl)c1` (centres unmarked) [C-111], the IC50 in the data set on Pfa1 cells was below 1 µM; in data set [1] (setting [4]), below 1 µM; in data set [2] (setting [5]), below 0.5 µM. The CC50 in data set [3] was 10 to 20 µM.
Take `Clc1ccccc1CNC1=Nc2ccccc2NC12CCCCC2` [C-1]: the IC50 was below 0.5 µM with Pfa1 cells, below 1 µM in data set [1] (setting [4]) and below 0.5 µM in data set [2] (setting [5]). In addition, in data set [3], the CC50 fell in the range of 20 to 50 µM.
Turning to `Cc1cc(C)cc(CNC2=Nc3cc(Cl)c(Cl)cc3NC23CCCCCC3)c1` [C-262], the IC50 in the data set with Pfa1 cells was below 0.5 µM; in data set [1] (setting [4]), below 0.5 µM; in data set [2] (setting [5]), below 0.1 µM. Also, the CC50 in data set [3] was 10 to 20 µM.
Take `Clc1cccc(CNC2=Nc3cc4c(cc3NC23CCNCC3)OCCO4)c1` [N-219]: the figures for the IC50 (in the data set on Pfa1 cells; in data set [1] (setting [4]); in data set [2] (setting [5])) were below 1 µM, below 1 µM and below 0.5 µM, respectively. Moreover, the CC50 in data set [3] lay in the range of 20 to 50 µM.
On to `Cc1cc(C)cc(CNC2=Nc3ccccc3NC23CCNCC3)c1` [N-217], for which the results for the IC50 (with Pfa1 cells; in data set [1] (setting [4]); in data set [2] (setting [5])) were below 0.1 µM, below 0.05 µM and below 0.05 µM, respectively. Also, in data set [3], the CC50 lay in the range of 20 to 50 µM.
With `CC1CC2(CCN1)Nc1ccccc1N=C2NCc1ccccc1` (centres unmarked) [N-240], the figures for the IC50 (in the data set with Pfa1 cells; in data set [1] (setting [4]); in data set [2] (setting [5])) were below 0.5 µM, below 0.5 µM and below 0.1 µM, respectively. Besides, the CC50 in data set [3] was 10 to 20 µM.
As to `FC(F)(F)c1ccc2c(c1)N=C(NCc1ccccc1)C1(CCCCC1)N2` [C-259], the IC50 was below 0.5 µM in the data set on Pfa1 cells, below 0.5 µM in data set [1] (setting [4]) and below 0.1 µM in data set [2] (setting [5]). Also, the CC50 in data set [3] was 5 to 10 µM.
With `NC1CCC2(CC1)Nc1ccccc1N=C2NCc1ccccc1` (centres unmarked) [C-257], the IC50 with Pfa1 cells is below 0.2 µM; in data set [1] (setting [4]), below 0.5 µM; in data set [2] (setting [5]) it was below 0.1 µM. Further, the CC50 in data set [3] lay within 2 to 5 µM.
For `Clc1cc2c(cc1Cl)NC1(CCCCC1)C(NCc1ccccc1)=N2` [C-217], the IC50 in the data set on Pfa1 cells was below 0.05 µM; in data set [1] (setting [4]), below 0.2 µM; in data set [2] (setting [5]), below 0.05 µM. Besides, the CC50 in data set [3] lay in the range of 20 to 50 µM.
Consider `CC(=O)N1CCC2(CC1)Nc1ccccc1N=C2NCc1cccc(Cl)c1` [N-99], for which the IC50 with Pfa1 cells is below 1 µM; in data set [1] (setting [4]) it was below 1 µM; in data set [2] (setting [5]), below 0.2 µM. The CC50 in data set [3] fell in the range of 50 to 100 µM.
Regarding `FC(F)(F)c1cccc(CNC2=Nc3ccccc3NC23CCCCCC3)c1` [C-261], the figures for the IC50 (in the data set on Pfa1 cells; in data set [1] (setting [4]); in data set [2] (setting [5])) were below 0.5 µM, below 0.5 µM and below 0.05 µM, respectively. For the same molecule, the CC50 in data set [3] is 10 to 20 µM.
As to `Cc1ccc(CNC2=Nc3ccccc3NC23CCCCC3)cc1` [C-12], the IC50 was below 0.5 µM with Pfa1 cells; 0.298 µM in data set [1] (setting [6]); below 0.5 µM in data set [1] (setting [4]); below 0.5 µM in data set [2] (setting [5]); 0.468 µM in data set [2] (setting [7]). For the same molecule, in data set [3], the CC50 is 50 to 100 µM.
`Fc1cc2c(cc1F)NC1(CCNCC1)C(NCc1cccc(Cl)c1)=N2` [N-117]: the results for the IC50 (in the data set with Pfa1 cells; in data set [1] (setting [4]); in data set [2] (setting [5])) were below 0.05 µM, below 0.05 µM and below 0.01 µM, respectively. Besides, the CC50 in data set [3] lay in the range of 1 to 2 µM.
Consider `CC1CC2(CCN1)Nc1ccccc1N=C2NCc1cccc(Cl)c1` (centres unmarked) [N-239], for which the IC50 is below 1 µM with Pfa1 cells, below 0.2 µM in data set [1] (setting [4]) and below 0.05 µM in data set [2] (setting [5]). For the same molecule, in data set [3], the CC50 lay within 5 to 10 µM.
Turning to `Cc1ccccc1CNC1=Nc2ccccc2NC12CCNCC2` [N-10], the IC50 was below 0.1 µM with Pfa1 cells; 0.01 to 0.05 µM in data set [1] (setting [6]); below 0.05 µM in data set [1] (setting [4]); below 0.02 µM in data set [2] (setting [5]); around 0.005 µM in data set [2] (setting [7]). Also, in data set [3], the CC50 was in the range of 5 to 10 µM.

These data come from patent publication US10280179B2, “Spiroquinoxaline derivatives as inhibitors of non-apoptotic regulated cell-death” (Helmholtz Zentrum Munchen—Deutches Forschungszentrum Fur …, priority 2013, dated 2019).
